Each compound was assayed on platelet aggregation (assay: Inhibition of platelet aggregation in vitro (rat blood)). Conditions: rat blood, in vitro; read-out: Inhibition of platelet aggregation in vitro (rat blood).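 Also: aggregation induced by ADP added as 4 µL of a 250 µM solution.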
Type: cell-based
Description: The measurements of platelet aggregation are performed at 37° C. in glass tubes (Chrono-Log—Kordia aggregometer).
Inhibition of Platelet Aggregation In Vitro (Rat Blood)
The blood is taken from male rats of the Sprague-Dawley strain, weighing 250-300 g.
The platelet-rich plasma (PRP) is obtained by centrifugation of the blood at 300 g for 5 minutes, and the measurements of platelet aggregation are performed as described above.
The results are calculated using the area under the curve of absorbance measured for 6 minutes, and expressed as percentage inhibition.

IC50 | Compound
2210 nM | CCCC(=O)c1cnn(-c2ccc(NC(=O)c3cn(CC(=O)N(C)C)c4cc(C)c(C)cc34)cc2)c1C [Compound 106]
980 nM | CCCC(=O)c1cnn(-c2ccc(NC(=O)c3cn(CC(=O)N(C)CCO)c4cc(C)c(C)cc34)cc2)c1C [Compound 108]
2420 nM | CCCC(=O)c1cnn(-c2ccc(NC(=O)c3cn(CC(=O)NC)c4cc(C)c(C)cc34)cc2)c1C [Compound 109]
3990 nM | CCCC(=O)c1cnn(-c2ccc(NC(=O)c3cn(CC(=O)N(C)CCN(C)C)c4cc(C)c(C)cc34)cc2)c1C [Compound 110]
3700 nM | CCCC(=O)c1cnn(-c2ccc(NC(=O)c3cn(CC(=O)N4CCN(C)CC4)c4cc(Cl)c(Cl)cc34)cc2)c1C [Compound 111]
360 nM | CCCC(=O)c1cnn(-c2ccc(NC(=O)c3cn(CC(=O)N4CCN(C)CC4)c4cc(C)c(Br)cc34)cc2)c1C [Compound 112]
620 nM | CCCC(=O)c1cnn(-c2ccc(NC(=O)c3cn(CC(=O)N4CCN(C)CC4)c4cc(C)c(Cl)cc34)cc2)c1C [Compound 113]
270 nM | CCCC(=O)c1cnn(-c2ccc(NC(=O)c3cn(CC(=O)N4CCN(C)CC4)c4ccc(C)cc34)cc2)c1C [Compound 114]
260 nM | CCCC(=O)c1cnn(-c2ccc(NC(=O)c3cn(CC(=O)N4CCN(CCO)CC4)c4ccc(C)cc34)cc2)c1C [Compound 116]
500 nM | CCCC(=O)c1cnn(-c2ccc(NC(=O)c3cn(CC(=O)N4CCN(CC)CC4)c4ccc(C)cc34)cc2)c1C [Compound 117]
290 nM | CCCC(=O)c1cnn(-c2ccc(NC(=O)c3cn(CC(=O)N4CCN(CC(F)F)CC4)c4ccc(C)cc34)cc2)c1C [Compound 118]
270 nM | CCCC(=O)c1cnn(-c2ccc(NC(=O)c3cn(CC(=O)N4CCC(N(C)C)C4)c4ccc(C)cc34)cc2)c1C (centres unmarked) [Compound 120]
1060 nM | CCCC(=O)c1cnn(-c2ccc(NC(=O)c3cn(CC(=O)N4CCN(CC5CC5)CC4)c4ccc(C)cc34)cc2)c1C [Compound 121]
450 nM | CCCC(=O)c1cnn(-c2ccc(NC(=O)c3cn(CC(=O)N4CCN(C5CC5)CC4)c4ccc(C)cc34)cc2)c1C [Compound 122]
350 nM | CCCC(=O)c1cnn(-c2ccc(NC(=O)c3cn(CC(=O)N4CCN5CCCC5C4)c4ccc(C)cc34)cc2)c1C (centres unmarked) [Compound 123]
210 nM | CCCC(=O)c1cnn(-c2ccc(NC(=O)c3cn(CC(=O)N4CCN(C(C)C)CC4)c4ccc(C)cc34)cc2)c1C [Compound 124]
580 nM | CCCC(=O)c1cnn(-c2ccc(NC(=O)c3cn(CC(=O)N4CCCC(N(C)C)C4)c4ccc(C)cc34)cc2)c1C (centres unmarked) [Compound 125]
760 nM | CCCC(=O)c1cnn(-c2ccc(NC(=O)c3cn(CC(=O)N(C)CCNC)c4ccc(C)cc34)cc2)c1C [Compound 126]
290 nM | CCCC(=O)c1cnn(-c2ccc(NC(=O)c3cn(CC(=O)N4CCOCC4)c4ccc(C)cc34)cc2)c1C [Compound 128]
650 nM | CCCC(=O)c1cnn(-c2ccc(NC(=O)c3cn(CC(=O)N4CCN(CC(F)(F)F)CC4)c4ccc(C)cc34)cc2)c1C [Compound 129]
470 nM | CCCC(=O)c1cnn(-c2ccc(NC(=O)c3cn(CC(=O)N4CCCN(C)CC4)c4ccc(C)cc34)cc2)c1C [Compound 130]
950 nM | CCCC(=O)c1cnn(-c2ccc(NC(=O)c3cn(CC(=O)NCCn4ccnc4)c4ccc(C)cc34)cc2)c1C [Compound 134]
400 nM | CCCC(=O)c1cnn(-c2ccc(NC(=O)c3cn(CC(=O)N4CCN(C)CC4)c4ccc(OC)cc34)cc2)c1C [Compound 136]
640 nM | CCCC(=O)c1cnn(-c2ccc(NC(=O)c3cn(CC(=O)N4CCCCC4CN4CCCC4)c4ccc(C)cc34)cc2)c1C (centres unmarked) [Compound 141]
190 nM | CCCC(=O)c1cnn(-c2ccc(NC(=O)c3cn(CC(=O)N4CCN(CCOCCO)CC4)c4ccc(Cl)cc34)cc2)c1C [Compound 144]

Same assay, conditions: rat platelet-rich plasma, ADP-induced aggregation, area under the curve of absorbance for 6 minutes; read-out: Inhibition of platelet aggregation in vitro (rat blood);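 also: aggregation induced by ADP added as 4 µL of a 250 µM solution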

Compound | IC50
CCCC(=O)c1cnn(-c2ccc(NC(=O)c3cn(CC(=O)N4CCN(CC(=O)NC5CC5)CC4)c4ccc(Cl)cc34)nn2)c1C [Compound 81] | 40 nM
CCCC(=O)c1cnn(-c2ccc(NC(=O)c3cn(CC(=O)N4CCN(Cc5noc(C)n5)CC4)c4ccc(Cl)cc34)nn2)c1C [Compound 82] | 50 nM
CCCC(=O)c1cnn(-c2ccc(NC(=O)c3cn(CC(=O)NCC(C)(C)N(C)C)c4ccc(Cl)cc34)nn2)c1C [Compound 83] | 330 nM
CCCC(=O)c1cnn(-c2ccc(NC(=O)c3cn(CC(=O)N4CCN5CCCC5C4C)c4ccc(Cl)cc34)nn2)c1C (centres unmarked) [Compound 84] | 90 nM
CCCC(=O)c1cnn(-c2ccc(NC(=O)c3cn(CC(=O)N4CCN(Cc5ccc(OC)c(F)c5)CC4)c4ccc(Cl)cc34)nn2)c1C [Compound 85] | 100 nM
CCCC(=O)c1cnn(-c2ccc(NC(=O)c3cn(CC(=O)N4CC(N5CCCCC5)C4)c4ccc(Cl)cc34)nn2)c1C [Compound 86] | 390 nM
CCCC(=O)c1cnn(-c2ccc(NC(=O)c3cn(CC(=O)N4CCN(CC(=O)OC)CC4)c4ccc(Cl)cc34)nn2)c1C [Compound 87] | 40 nM
CCCC(=O)c1cnn(-c2ccc(NC(=O)c3cn(CC(=O)N4CC5CCCN5CC4C)c4ccc(Cl)cc34)nn2)c1C (centres unmarked) [Compound 88] | 90 nM
CCCC(=O)c1cnn(-c2ccc(NC(=O)c3cn(CC(=O)N4CC5CCCCN5CC4C)c4ccc(Cl)cc34)nn2)c1C (centres unmarked) [Compound 89] | 170 nM
CCCC(=O)c1cnn(-c2ccc(NC(=O)c3cn(CC(=O)N(C)C4CC4)c4ccc(Cl)cc34)nn2)c1C [Compound 90] | 60 nM
CCCC(=O)c1cnn(-c2ccc(NC(=O)c3cn(CC(=O)N(C)CC4CCOC4)c4ccc(Cl)cc34)nn2)c1C (centres unmarked) [Compound 91] | 120 nM
CCCC(=O)c1cnn(-c2ccc(NC(=O)c3cn(CC(=O)N4CCN(Cc5ccc(F)cc5)CC4)c4ccc(Cl)cc34)nn2)c1C [Compound 92] | 200 nM
CCCC(=O)c1cnn(-c2ccc(NC(=O)c3cn(CC(=O)N4CCN(CCOCC)CC4)c4ccc(Cl)cc34)nn2)c1C [Compound 93] | 150 nM
CCCC(=O)c1cnn(-c2ccc(NC(=O)c3cn(CC(=O)N4CCC(OC)CC4)c4ccc(Cl)cc34)nn2)c1C [Compound 94] | 180 nM
CCCC(=O)c1cnn(-c2ccc(NC(=O)c3cn(CC(=O)N4CCN(CCO)CC4)c4ccc(Cl)cc34)nn2)c1C [Compound 95] | 50 nM
CCCC(=O)c1cnn(-c2ccc(NC(=O)c3cn(CC(=O)NCc4cc(C)no4)c4ccc(Cl)cc34)nn2)c1C [Compound 96] | 930 nM
CCCC(=O)c1cnn(-c2ccc(NC(=O)c3cn(CC(=O)N(C)CCN(C)C)c4ccc(Cl)cc34)nn2)c1C [Compound 97] | 90 nM
CCCC(=O)c1cnn(-c2ccc(NC(=O)c3cn(CC(=O)N4CCN(CCN(C)C)CC4)c4ccc(Cl)cc34)nn2)c1C [Compound 98] | 70 nM
CCCC(=O)c1cnn(-c2ccc(NC(=O)c3cn(CC(=O)N4CCCN(C)CC4)c4ccc(Cl)cc34)nn2)c1C [Compound 99] | 110 nM
CCCC(=O)c1cnn(-c2ccc(NC(=O)c3cn(CC(=O)N4CCN(CC(=O)N(C)C)CC4)c4ccc(Cl)cc34)nn2)c1C [Compound 101] | 110 nM
CCCC(=O)c1cnn(-c2ccc(NC(=O)c3cn(CC(=O)N4CCN(Cc5ccncc5)CC4)c4ccc(Cl)cc34)nn2)c1C [Compound 102] | 30 nM
CCCC(=O)c1cnn(-c2ccc(NC(=O)c3cn(CC(=O)N4CC(N5CCOCC5)C4)c4ccc(Cl)cc34)nn2)c1C [Compound 104] | 100 nM
